Here are results for one molecule from patent US12642786B2, “Methods, compositions and kits for treating multiple sclerosis and other disorders” (The Johns Hopkins University, priority 2018, dated 2026).

Each structure is given as a SMILES string.

The test system of assay [1] is neurospheres. Nature of the assay: Neurospheres, staining for oligodendrocyte marker. Format: cell-based. The following applies: 20 nM every other day for 1 week. From the text:
We examined the effect of bryo-1 on neurospheres, which are neural stem cell-like cells.

Assay [2] has as its system corpus callosum, LPC demyelination. Put plainly: Lysolecithin (LPC)-induced demyelination, MBP staining. Format: in vivo, C57BL/6J mice. The following applies: 30 μg/kg IP at 3, 5, 7 and 9 dpl, assessed at 10 dpl. As to the method: To evaluate the impact of systemic treatment with bryo-1 on physiologic demyelination in vivo, we conducted a lysolecithin (LPC)-induced demyelination animal study. LPC was stereotactically injected into the corpus callosum of 12-week old C57BL/6J mice. Bryo-1 (30 μg/kg) or vehicle was injected IP at 3, 5, 7, and 9 dpl followed by immunofluorescent assessment of MBP expression at 10 dpl.

Assay [3] relates to LPS-stimulated BMDCs. Nature of the assay: BMDC cytokine secretion by ELISA. Format: cell-based, C57BL/6J mice. As to the method: (§1) BMDCs were generated as described in Lutz, “An advanced culture method for generating large quantities of highly pure dendritic cells from mouse bone marrow,” 1999, J. Immunol. Methods 223:77-92, with minor modifications. Briefly, femurs were removed from 6-10-wk-old female C57BL/6J mice, cut on both ends, and marrow flushed with PBS. Bone marrow cells were then pelleted by centrifugation (500×g for 8 min), resuspended in red blood cell lysis buffer (Sigma) for 1 min, and quenched with excess PBS. After another centrifugation, cells were resuspended in complete RPMI (cRPMI) media consisting of RPMI-1640 with GlutaMAX™ supplement (Thermo Fisher Scientific) supplemented with 10% FBS, penicillin-streptomycin (Gibco), and 50 μM 2-mercaptoethanol (Sigma). On day 0, ˜2×10^6 cells were then seeded per 100-mm plate in 10 mL media containing 20 ng/mL rmGM-CSF (Peprotech). On day 3, an additional 10 mL fresh cRPMI media containing 20 ng/mL rmGM-CSF was added to each plate. On day 6, half the culture supernatant from each plate was removed and centrifuged, and the pelleted cells resuspended in 10 mL fresh cRPMI with 20 ng/mL rmGM-CSF and added back to the plates. On day 8, all nonadherent cells (representing the BMDC fraction) were collected, pelleted by centrifugation, resuspended in fresh cRPMI media with 20 ng/mL rmGM-CSF, and plated into 24-well dishes. These BMDCs were then treated overnight with or without LPS 100 ng/mL plus the indicated doses of bryo-1. The following day (day 9), these cells were then assayed by flow cytometry or cytokine ELISA.
After overnight treatment of BMDCs or mPMs with LPS 100 ng/mL±bryo-1, culture supernatants were collected and cytokine production was assayed using ELISA kits for IL-12 p70 (catalog #88-7121-22), IL-6 (catalog #88-7064-22), and IL-10 (catalog #88-7105-22) purchased from eBioscience, according to manufacturer's instructions. Plates were read at 450 nm on a tabletop plate reader.

Assay [4] relates to bone marrow-derived dendritic cells (BMDCs). Nature of the assay: BMDC CD40 and CD86 expression by flow cytometry. Format: cell-based, C57BL/6J mice. As to the method:
All staining procedures were performed in the dark at room temperature. For analysis of surface marker expression on bone marrow-derived DCs, cells were first stained with LIVE/DEAD aqua (Life Technologies, L-34966) for 30 min at room temperature in PBS. Fc receptors were blocked with anti-CD16/CD32 (Biolegend, 101320) for the final 10 min of staining. The cells were then washed and stained with specific conjugated antibodies for the specified surface markers in FACS buffer (PBS supplemented with 2% FBS and 1 mM EDTA) for 30 min.
(§2) Cells were analyzed by flow cytometry using a MACSQuant flow cytometer (Miltenyi Biotec). Flow data analysis was performed in FlowJo (FlowJo) or FlowLogic (Inivai).
as §1
In general terms: In flow cytometry, cells or beads pass a laser one at a time.

The subject of assay [5] is CD4+, Th1 and Th17 lymphocytes in EAE mice. Put plainly: Flow cytometry of lymph node, spleen, brain and spinal cord in EAE mice, prevention paradigm. Format: in vivo, C57BL/6J mice. As to the method: Mice were killed with pentobarbital and perfused via cardiac puncture with ice-cold HBSS without cations. Brain, spinal cord (collected using hydrostatic pressure), spleen, and lymph node tissue were isolated after perfusion and were mechanically dissociated by passing through 100-μm cell strainers. For CNS tissue, after dissociation, infiltrating mononuclear cells were separated from myelin debris using a 37/70% percoll gradient. After dissociation, spleens were incubated in ACK lysis buffer to remove red blood cell contamination. Cells were counted using a MACSQuant flow cytometer (Miltenyi Biotec).
For surface marker and intracellular cytokine staining of T cells, the cells were first restimulated with a cell stimulation mixture with protein transport inhibitors (eBioscience, catalog #00-4975-03) for 4 h in cRPMI at 37° C. They then underwent live/dead and surface marker staining as earlier. For intracellular cytokine staining, cells were permeabilized and fixed using either IC Fixation buffer for cytokine analysis (eBioscience, 00-8222-49) or FoxP3 fixation/permeabilization buffer for transcription factor analysis (eBioscience, 00-5521-00) after manufacturer recommended protocol and incubated with specific conjugated antibodies for the specified proteins in permeabilization buffer for 1 h.
as §2
EAE was elicited by immunizing 8-12-wk-old C57BL/6J mice with MOG35-55. Neurologic symptoms of EAE were most evident 10-14 d after MOG immunization, peaking at about 16 d and then plateauing with slight diminution until 21 d. Mice were treated with bryo-1 (30 μg/kg) or vehicle by i.p. injection 3 d per week.

The test system of assay [6] is corpus callosum remyelination. Put plainly: Cuprizone-induced demyelination, Black-Gold II myelin staining. It counts as in vivo, C57BL/6J mice. The note with it: 30 μg/kg IP every other day from re-feeding, day 8 after re-feeding. As to the method: Cuprizone-induced demyelination was elicited as described by Baxi et al., Glia (2017) 65:2087-098, with minor modification. Female C57BL/6J mice (8 weeks old) were fed 0.2% cuprizone for 5 weeks to induce demyelination of the corpus callosum and then returned to normal feed. The mice (n=2 per group) were then treated with either bryo-1 (30 μg/kg) or vehicle by IP injection every other day beginning on the first day of re-feeding with normal feed, and the extent of corpus callosum remyelination was assessed by Black-Gold II myelin staining on day 8 after re-feeding.

The mark [7] stands for this setting: brain and spinal cord, peak disease (day 14).
The mark [8] stands for this setting: lymph nodes, 8 d after immunization, prevention paradigm.
Setting [9] is: lymph nodes, day 8, prevention paradigm.
Where [10] appears, read: peak disease (day 14), prophylactic treatment.
The mark [11] stands for this setting: spleen, day 8, prevention paradigm.

As to `CCC/C=C/C=C/C(=O)OC1/C(=C/C(=O)OC)CC2CC(C(C)O)OC(=O)CC(O)CC3CC(OC(C)=O)C(C)(C)C(O)(CC4C/C(=C/C(=O)OC)CC(/C=C/C(C)(C)C1(O)O2)O4)O3` (stereo not shown) [bryo-1, Bryostatin-1], the “expression of the oligodendrocyte marker 04” value in assay [1] is reported as “increased expression”. In assay [2], the “rate of oligodendrogenesis (MBP staining)” value is on record as “appears to have increased the rate of oligodendrogenesis”. Also, the “LPS-induced secretion of IL-12” value in assay [3] (BMDCs, LPS 100 ng/mL, bryo-1 10 nM, overnight) is “abrogated”. In addition, the “secretion of IL-10” value in assay [3] (BMDCs, LPS 100 ng/mL, overnight) is “significantly augmented”. Also, the “concentration with direct anti-inflammatory effects on DCs and macrophages (as low as)” value in assay [3] (DCs and macrophages) came out at 10 nM. Also, the “CD86 expression in LPS-stimulated BMDCs” value in assay [4] (LPS 100 ng/mL) is given as “no effect”. In assay [4] (LPS 100 ng/mL, bryo-1 at either 20 or 200 nM), the “LPS-induced up-regulation of CD40” value is recorded as “abrogated”. For the same molecule, in assay [4] (absence of LPS, overnight), the CD40 expression entry was “no significant effect” and the CD86 expression result is given as “up-regulates CD86”. Further, in assay [5] (setting [7]), the “percentage of infiltrating CD4+ lymphocytes expressing IL17” value is reported as “unchanged” and the “proportion of infiltrating CD4+ lymphocytes producing IFNγ” value was “decreased proportion”. Further, in assay [5] (setting [8]), the “numbers of Th1 (CD4+; IFNγ+) lymphocytes in lymph nodes” value is given as “significantly decreased numbers”, the “numbers of Th17 (CD4+; IL17+) lymphocytes in lymph nodes” value is “significantly decreased numbers” and the “numbers of total CD4+ (CD3+; CD4+) lymphocytes in lymph nodes” value is “significantly decreased numbers”. Also, in assay [5] (setting [9]), the “proportion of Th1 cells among CD4+ lymphocytes” value is listed as “significantly lower proportion” and the “proportion of Th17 cells among CD4+ lymphocytes” value is reported as “insignificant decrease”. Moreover, in assay [5] (setting [10]), the “infiltration of CD4+ lymphocytes into the brain” value is recorded as “diminished infiltration” and the “infiltration of CD4+ lymphocytes into the spinal cord” value is reported as “diminished infiltration”. In addition, in assay [5] (setting [11]), the “numbers of Th1 lymphocytes in spleen” value is “significantly decreased numbers”, the “numbers of Th17 cells in spleen” value was “trend toward decreased” and the “numbers of total CD4+ lymphocytes in spleen” value was “significantly decreased numbers”. Further, in assay [6], the “rate of remyelination (extent of Black-Gold II staining)” value is reported as “increased the rate of remyelination”.
